What was measured:
[1] = Interaction with the stable radical DPPH (reducing ability)
Protocol: To a solution of DPPH in absolute ethanol the appropriate volume of the compounds (50 or 100 µM final concentrations) dissolved in DMSO was added. The absorbance was recorded at 517 nm after 20 and 60 min at room temperature. The experiments were repeated at least in triplicate and the standard deviation of absorbance was less than 10% of the mean. NDGA was used under the same experimental conditions as a reference compound.

[2] = tested on: MCF-7 breast carcinoma cell line; assay: Growth inhibition of tumor cell lines in vitro (MTT / cell counting); format: cell-based, human; conditions: Homo sapiens, MCF7, 72 h; MCF-7, 3 days
Protocol: (§1) The experiments were carried out on a murine lymphocytic leukemia cell line (L1210) and five human tumor cell lines: CEM, HeLa, NCI-H460, SW 620 and MCF-7. The cells were cultured as monolayers and maintained in Dulbecco′s modified Eagle medium (DMEM) supplemented with 10% fetal bovine serum (FBS), 2 mM L-glutamine, 100 U/mL penicillin and 100 μg/mL streptomycin in a humidified atmosphere with 5% CO2 at 37 °C.
(§2) The growth inhibition activity of the compounds was assessed as described previously. The cell lines were inoculated onto a series of standard 96-well microtiter plates on day 0, at 1.5 × 10^4 cells/mL (SW 620, H460) to 2.5 × 10^4 cells/mL (MCF-7, CEM and L1210), depending on the growth of the tumor cell line. Test agents were then added in ten-fold dilutions (10^−8 to 10^−4 M) and the cell cultures were then incubated for 3–4 days with 5% CO2 at 37 °C. Working dilutions of the compounds were freshly prepared on the day of testing.
(§3) After 3 (MCF-7, SW 620, NCI-H460) or 4 days (CEM, L1210), the cell growth rate was evaluated first light microscopically, then by viable cell counting and/or by performing the MTT assay, which detects dehydrogenase activity in live, not dead, cells. The absorbance (A) was measured on a microplate reader at 570 nm. The absorbance is directly proportional to the number of living, metabolically active cells. […] If however, all of the tested concentrations produce PGs exceeding the respective reference level of effect (e.g., PG value of 50), then the highest tested concentration is assigned as the default value, which is preceded by a “>” sign. Minimum two individual experiments were carried out and each test point was performed in quadruplicate.

[3] = tested on: NCI-H460 lung carcinoma cell line; assay: as above; format: cell-based, human; conditions: Homo sapiens, 72 h; NCI-H460, 3 days
Protocol: as §1, §2, §3

[4] = tested on: SW 620 colon carcinoma cell line; assay: as above; format: cell-based; conditions: Homo sapiens, 72 h; SW 620, 3 days
Protocol: as §1, §2, §3

[5] = tested on: L1210 murine lymphocytic leukemia cell line; assay: as above; format: cell-based; conditions: Mus musculus, 96 h; L1210, 4 days
Protocol: as §1, §2, §3

[6] = tested on: CEM acute lymphoblastic leukemia cell line; assay: as above; format: cell-based; conditions: Homo sapiens, 96 h, 4 days
Protocol: as §1, §2, §3

[7] = tested on: HeLa cervical carcinoma cell line; assay: as above; format: cell-based; conditions: Homo sapiens
Protocol: as §1, §2, §3

[8] = Inhibition of linoleic acid peroxidation (AAPH-induced); conditions: 5 × 10^−5 M
Protocol: For initiating the lipid peroxidation free radical AAPH was used. Final solution in the UV cuvette consisted of 10 μL linoleate sodium solution (c = 16 mM), 0.93 mL phosphate buffer (c = 0.05 M), pH 7.4, thermostated at 37 °C. 50 μL AAPH solution (c = 40 mM) and 10 μL of the tested compounds were added. The experiment was performed at 37 °C under air. The oxidation of linoleic acid sodium salt was monitored at 234 nm. The assays were repeated at least in triplicate and the standard deviation of absorbance was less than 10% of the mean. Trolox was used under the same experimental conditions as a reference compound.

[9] = biological target: T1, soybean lipoxygenase (LOX) (Glycine max, UniProt P08170); assay: LOX inhibition study in vitro; format: biochemical; conditions: 1 × 10^−4 M
T1 construct: purchased Sigma-Aldrich
T1 sequence (P08170 1-839): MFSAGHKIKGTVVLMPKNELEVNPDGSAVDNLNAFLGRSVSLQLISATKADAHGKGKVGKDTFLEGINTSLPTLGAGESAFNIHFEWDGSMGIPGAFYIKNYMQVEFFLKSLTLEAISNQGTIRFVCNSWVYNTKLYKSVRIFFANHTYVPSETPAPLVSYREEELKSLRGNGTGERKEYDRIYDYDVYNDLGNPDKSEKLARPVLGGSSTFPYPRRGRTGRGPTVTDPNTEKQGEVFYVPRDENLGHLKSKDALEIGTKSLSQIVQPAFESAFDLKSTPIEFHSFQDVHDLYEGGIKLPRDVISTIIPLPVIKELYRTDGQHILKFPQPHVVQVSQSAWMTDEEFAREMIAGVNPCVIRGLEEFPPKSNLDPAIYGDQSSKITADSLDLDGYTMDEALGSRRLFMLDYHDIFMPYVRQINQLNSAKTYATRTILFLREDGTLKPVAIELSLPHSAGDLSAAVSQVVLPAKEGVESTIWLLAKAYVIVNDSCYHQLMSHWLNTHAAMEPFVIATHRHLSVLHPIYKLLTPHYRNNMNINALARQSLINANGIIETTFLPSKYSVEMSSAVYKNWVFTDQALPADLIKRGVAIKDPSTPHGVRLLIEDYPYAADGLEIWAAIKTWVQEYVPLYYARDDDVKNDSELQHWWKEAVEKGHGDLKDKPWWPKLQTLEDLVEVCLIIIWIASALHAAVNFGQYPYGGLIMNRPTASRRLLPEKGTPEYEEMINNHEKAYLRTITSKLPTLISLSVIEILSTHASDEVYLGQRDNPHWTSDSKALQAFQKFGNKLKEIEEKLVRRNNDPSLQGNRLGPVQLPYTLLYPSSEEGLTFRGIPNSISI
Protocol: LOX inhibitory assay in vitro was accomplished as described previously. The test compounds (stock solutions 10 mM in DMSO) were incubated at room temperature with sodium linoleate (c = 0.1 mM) and 0.2 mL of LOX enzyme solution (1/9 × 10^−4 m/V in saline). The conversion of sodium linoleate to 13-hydroperoxylinoleic acid was measured at 234 nm and compared with the reference inhibitor. Several concentrations were used for the IC50 determination.

| SMILES | DPPH-reducing ability RA (%) ([1]; 1 × 10^−4 M, 20 min) | DPPH-reducing ability RA (%) ([1]; 1 × 10^−4 M, 60 min) | DPPH-reducing ability RA (%) ([1]; 5 × 10^−5 M, 20 min) | DPPH-reducing ability RA (%) ([1]; 5 × 10^−5 M, 60 min) | IC50 [2] | IC50 [3] | IC50 [4] | IC50 [5] | IC50 [6] | IC50 [7] | LP Inhibition (%) [8] | inhibition at 100 µM [9] |
| --- | --- | --- | --- | --- | --- | --- | --- | --- | --- | --- | --- | --- |
| COc1cc(NC(C)CCCNC(=O)/C=C/c2ccccc2)c2ncccc2c1 (centres unmarked) [3a, (E)-N-(4-(6-Methoxyquinolin-8-ylamino)pentyl)-3-phenylacrylamide] | 53% | 33% | 16% | 20% | 24 ± 5 µM | > 1 µM | 23 ± 9 µM | 52 ± 3 µM | 27 ± 4 µM | 4 ± 0.9 µM | 44% | 19% |
| COc1cc(NC(C)CCCNC(=O)/C(C)=C/c2ccccc2)c2ncccc2c1 (centres unmarked) [3b, (E)-N-(4-(6-Methoxyquinolin-8-ylamino)pentyl)-2-methyl-3-phenylacrylamide] | 5% | 37% | 2% | 2% | 9.4 ± 0.2 µM | > 100 µM | > 100 µM | 51 µM | 55 ± 6 µM | 106 ± 26 µM | 79% | 14% |
| COc1ccc(/C=C/C(=O)NCCCC(C)Nc2cc(OC)cc3cccnc23)cc1 (centres unmarked) [3c, (E)-3-(4-Methoxyphenyl)-N-(4-(6-methoxyquinolin-8-ylamino)pentyl)acrylamide] | 40% | 43% | 22% | 27% | 20 ± 3 µM | > 100 µM | > 100 µM | 106 ± 6 µM | 61 ± 30 µM | > 125 µM | 70% | 45% |
| COc1cc(NC(C)CCCNC(=O)/C=C/c2ccc(OC)c(OC)c2)c2ncccc2c1 (centres unmarked) [3d, (E)-3-(3,4-Dimethoxyphenyl)-N-(4-(6-methoxyquinolin-8-ylamino)pentyl)acrylamide] | 34% | 31% | – | – | 16 ± 0.6 µM | > 100 µM | > 100 µM | 100 ± 34 µM | 90 ± 45 µM | > 125 µM | 73% | 43% |
| COc1cc(NC(C)CCCNC(=O)/C=C/c2cc(OC)c(OC)c(OC)c2)c2ncccc2c1 (centres unmarked) [3e, (E)-N-(4-(6-Methoxyquinolin-8-ylamino)pentyl)-3-(3,4,5-trimethoxyphenyl)acrylamide] | 16% | 23% | 4% | 9% | 8.7 ± 0.3 µM | > 100 µM | > 100 µM | 22 ± 2 µM | 55 ± 16 µM | > 125 µM | 47% | 26% |
| COc1cc(NC(C)CCCNC(=O)/C=C/c2ccc3c(c2)OCO3)c2ncccc2c1 (centres unmarked) [3f, (E)-3-(Benzo[d][1,3]dioxo-5-yl)-N-(4-(6-methoxyquinolin-8-ylamino)pentyl)acrylamide] | 11% | 33% | – | – | 6.9 ± 1.3 µM | > 100 µM | > 100 µM | 59 ± 2 µM | 37 ± 27 µM | 72 ± 57 µM | 87% | 34% |

Source: publication PMC6273687, “Design, Synthesis and Biological Evaluation of Novel Primaquine-Cinnamic Acid Conjugates of the Amide and Acylsemicarbazide Type” (Molecules, 2016)
